Assay results published in paper PMC9301721 (ACS Omega, 2022).

Key:
[1] = test system: 14-3-3ε and FOXO3a interaction; details: cells expressing the 9J10 probe; cited from earlier work
14-3-3ε = details: pull-down and mass spectrometry; cited from earlier work
crystal structure = target: the molecule itself; experiment: crystal structure

For LNTRPGRRRNpSN [9J10], the “Interaction between 14-3-3ε and FOXO3a in cells expressing the probe” value [1] is given as “sharp reduction in the interaction between 14-3-3ε and FOXO3a” and the “14-3-3 proteins interacting with probe (pull-down, MS)” value (14-3-3ε) is given as 14-3-3ε is one among the abundant 14-3-3 proteins interacting with 9J10.

B1: 14-3-3εΔC (aa 1-232) (domain or fragment, human, UniProt P62258 1-232, looked up)
chain: MDDREDLVYQAKLAEQAERYDEMVESMKKVAGMDVELTVEERNLLSVAYKNVIGARRASWRIISSIEQKEENKGGEDKLKMIREYRQMVETELKLICCDILDVLDKHLIPAANTGESKVFYYKMKGDYHRYLAEFATGNDRKEAAENSLVAYKAASDIAMTELPPTHPIRLGLALNFSVFYYEILNSPDRACRLAKAAFDDAIAELDTLSEESYKDSTLIMQLLRDNLTLWT
B1: binds (crystal structure).
